ChEMBL document CHEMBL5537127, “Design and synthesis of novel hederagonic acid analogs as potent anti-inflammatory compounds capable of protecting against LPS-induced acute lung injury” (Eur J Med Chem, 2024)

Legend:
RAW264.7 [1] = test: Anti-inflammatory activity against LPS-induced mouse RAW264.7 cells assessed as inhibition of NO production at 20 uM preincubated for 2 hrs followed by LPS addition and measured after 24 hrs by Griess reagent-based microplate reader analysis relative to control; assay type: functional; set-up: scale not given: the % may be the effect or the level left; conditions: time 26 hrs
RAW264.7 [2] = test: Anti-inflammatory activity against LPS-induced mouse RAW264.7 cells assessed as inhibition of NO production at 10 uM preincubated for 2 hrs followed by LPS addition and measured after 24 hrs by Griess reagent-based microplate reader analysis relative to control; assay type: functional; set-up: scale not given: the % may be the effect or the level left; conditions: time 26 hrs
[3] = Cytotoxicity against mouse RAW264.7 cells assessed as cell viability at 40 uM incubated for 24 hrs by MTT assay relative to control; assay type: toxicity, cell-based; conditions: read-out: Activity

SMILES	Activity (RAW264.7 [1]) [%]	Activity (RAW264.7 [2]) [%]	viability at 24 h, 40 µM [3] [%]
CC1(C)CC[C@]2(C(=O)OCc3ccccc3)CC[C@]3(C)C(=CC[C@@H]4[C@@]5(C)C/C(=C/c6cccc([N+](=O)[O-])c6)C(=O)[C@@](C)(CO)[C@@H]5CC[C@]43C)[C@@H]2C1	9.38	1.09	109
COCC(=O)OC[C@]1(C)C(=O)CC[C@@]2(C)[C@H]1CC[C@]1(C)[C@@H]2CC=C2[C@@H]3CC(C)(C)CC[C@]3(C(=O)OCc3ccccc3)CC[C@]21C	61.15	42.74	105
CC1(C)CC[C@]2(C(=O)OCc3ccccc3)CC[C@]3(C)C(=CC[C@@H]4[C@@]5(C)CCC(=O)[C@@](C)(COC(=O)CCCCCNC(=O)CCCC[C@@H]6CCSS6)[C@@H]5CC[C@]43C)[C@@H]2C1	75.31	49.56	99.7
CC1(C)CC[C@]2(C(=O)OCc3ccccc3)CC[C@]3(C)C(=CC[C@@H]4[C@@]5(C)CCC(=O)[C@@](C)(COC(=O)CC#N)[C@@H]5CC[C@]43C)[C@@H]2C1	57.99	40.79	93.1
CC1(C)CC[C@]2(C(=O)OCc3ccccc3)CC[C@]3(C)C(=CC[C@@H]4[C@@]5(C)C/C(=C/c6cnccn6)C(=O)[C@@](C)(CO)[C@@H]5CC[C@]43C)[C@@H]2C1	5.02	4.56	3.34
CC1(C)CC[C@]2(C(=O)OCc3ccccc3)CC[C@]3(C)C(=CC[C@@H]4[C@@]5(C)CCC(=O)[C@@](C)(COC(=O)CCCCNC(=O)CCCC[C@@H]6CCSS6)[C@@H]5CC[C@]43C)[C@@H]2C1			31.6
CC1(C)CC[C@]2(C(=O)OCc3ccccc3)CC[C@]3(C)C(=CC[C@@H]4[C@@]5(C)C/C(=C/c6nccs6)C(=O)[C@@](C)(CO)[C@@H]5CC[C@]43C)[C@@H]2C1			62.8
CC1(C)CC[C@]2(C(=O)OCc3ccccc3)CC[C@]3(C)C(=CC[C@@H]4[C@@]5(C)CCC(=O)[C@@](C)(COC(=O)CNC(=O)CNC(=O)CCCC[C@@H]6CCSS6)[C@@H]5CC[C@]43C)[C@@H]2C1			78.5
CC1(C)CC[C@]2(C(=O)OCc3ccccc3)CC[C@]3(C)C(=CC[C@@H]4[C@@]5(C)CCC(=O)[C@@](C)(COC(=O)CCN6CCCCC6)[C@@H]5CC[C@]43C)[C@@H]2C1			3.82
CC(C)=CC(=O)OC[C@]1(C)C(=O)CC[C@@]2(C)[C@H]1CC[C@]1(C)[C@@H]2CC=C2[C@@H]3CC(C)(C)CC[C@]3(C(=O)OCc3ccccc3)CC[C@]21C	25.68	16.39	95
CC1(C)CC[C@]2(C(=O)O)CC[C@]3(C)C(=CC[C@@H]4[C@@]5(C)CCC(=O)[C@@](C)(CO)[C@@H]5CC[C@]43C)[C@@H]2C1			109
CC1(C)CC[C@]2(C(=O)OCc3ccccc3)CC[C@]3(C)C(=CC[C@@H]4[C@@]5(C)CCC(=O)[C@@](C)(COC(=O)CCn6cccc6)[C@@H]5CC[C@]43C)[C@@H]2C1	12.08	7.3	96.9
CC1(C)CC[C@]2(C(=O)OCc3ccccc3)CC[C@]3(C)C(=CC[C@@H]4[C@@]5(C)C/C(=C/c6ccc(Br)cc6)C(=O)[C@@](C)(CO)[C@@H]5CC[C@]43C)[C@@H]2C1	10.62	6.09	92.9
CC1(C)CC[C@]2(C(=O)OCc3ccccc3)CC[C@]3(C)C(=CC[C@@H]4[C@@]5(C)C/C(=C/c6ccccc6[N+](=O)[O-])C(=O)[C@@](C)(CO)[C@@H]5CC[C@]43C)[C@@H]2C1	7.94	1.44	65
CC1(C)CC[C@]2(C(=O)OCc3ccccc3)CC[C@]3(C)C(=CC[C@@H]4[C@@]5(C)C/C(=C/c6ccccc6)C(=O)[C@@](C)(CO)[C@@H]5CC[C@]43C)[C@@H]2C1			68.1
CC1(C)CC[C@]2(C(=O)OCc3ccccc3)CC[C@]3(C)C(=CC[C@@H]4[C@@]5(C)C/C(=C/c6cccc(Br)c6)C(=O)[C@@](C)(CO)[C@@H]5CC[C@]43C)[C@@H]2C1	3.82	3.77	94
CC1(C)CC[C@]2(C(=O)OCc3ccccc3)CC[C@]3(C)C(=CC[C@@H]4[C@@]5(C)C/C(=C/c6cscn6)C(=O)[C@@](C)(CO)[C@@H]5CC[C@]43C)[C@@H]2C1			85

SMILES	Activity (RAW264.7 [1]) [%]	Activity (RAW264.7 [2]) [%]	viability at 24 h, 40 µM [3] [%]
CC1(C)CC[C@]2(C(=O)OCc3ccccc3)CC[C@]3(C)C(=CC[C@@H]4[C@@]5(C)CCC(=O)[C@@](C)(COC(=O)CCc6c[nH]c7ccccc67)[C@@H]5CC[C@]43C)[C@@H]2C1	0.43	0.17	107
CC[C@H](C)[C@H](NC(=O)CCCC[C@@H]1CCSS1)C(=O)OC[C@]1(C)C(=O)CC[C@@]2(C)[C@H]1CC[C@]1(C)[C@@H]2CC=C2[C@@H]3CC(C)(C)CC[C@]3(C(=O)OCc3ccccc3)CC[C@]21C	25.3	17.94	96
CC1(C)CC[C@]2(C(=O)OCc3ccccc3)CC[C@]3(C)C(=CC[C@@H]4[C@@]5(C)CCC(=O)[C@@](C)(COC(=O)CNC(=O)CCCC[C@@H]6CCSS6)[C@@H]5CC[C@]43C)[C@@H]2C1	46.99	28.81	114
CC1(C)CC[C@]2(C(=O)OCc3ccccc3)CC[C@]3(C)C(=CC[C@@H]4[C@@]5(C)C/C(=C/c6ccccc6Br)C(=O)[C@@](C)(CO)[C@@H]5CC[C@]43C)[C@@H]2C1	12.61	5.33	92.2
CC1(C)CC[C@]2(C(=O)OCc3ccccc3)CC[C@]3(C)C(=CC[C@@H]4[C@@]5(C)CCC(=O)[C@@](C)(COC(=O)CCC6CCCC6)[C@@H]5CC[C@]43C)[C@@H]2C1	0.76	0.34	105
CC1(C)CC[C@]2(C(=O)OCc3ccccc3)CC[C@]3(C)C(=CC[C@@H]4[C@@]5(C)CCC(=O)[C@@](C)(COC(=O)CCNC(=O)CCCC[C@@H]6CCSS6)[C@@H]5CC[C@]43C)[C@@H]2C1	62.67	43.82	99.4
CC(=O)CCC(=O)OC[C@]1(C)C(=O)CC[C@@]2(C)[C@H]1CC[C@]1(C)[C@@H]2CC=C2[C@@H]3CC(C)(C)CC[C@]3(C(=O)OCc3ccccc3)CC[C@]21C	59.4	43.51	106
CC1(C)CC[C@]2(C(=O)OCc3ccccc3)CC[C@]3(C)C(=CC[C@@H]4[C@@]5(C)CCC(=O)[C@@](C)(COC(=O)CCCC[C@@H]6CCSS6)[C@@H]5CC[C@]43C)[C@@H]2C1	56.28	29.81	119
CC1(C)CC[C@]2(C(=O)OCc3ccccc3)CC[C@]3(C)C(=CC[C@@H]4[C@@]5(C)C/C(=C/c6cccs6)C(=O)[C@@](C)(CO)[C@@H]5CC[C@]43C)[C@@H]2C1			72.1
CC1(C)CC[C@]2(C(=O)OCc3ccccc3)CC[C@]3(C)C(=CC[C@@H]4[C@@]5(C)CCC(=O)[C@@](C)(COC(=O)CCc6ccccc6)[C@@H]5CC[C@]43C)[C@@H]2C1			76.1
CC1(C)CC[C@]2(C(=O)OCc3ccccc3)CC[C@]3(C)C(=CC[C@@H]4[C@@]5(C)CCC(=O)[C@@](C)(COC(=O)C(F)(F)F)[C@@H]5CC[C@]43C)[C@@H]2C1			4.58
CC1(C)CC[C@]2(C(=O)OCc3ccccc3)CC[C@]3(C)C(=CC[C@@H]4[C@@]5(C)CCC(=O)[C@@](C)(COC(=O)c6cc7ccccc7[nH]6)[C@@H]5CC[C@]43C)[C@@H]2C1	42.11	22.29	110
CC1(C)CC[C@]2(C(=O)OCc3ccccc3)CC[C@]3(C)C(=CC[C@@H]4[C@@]5(C)CCC(=O)[C@@](C)(CO)[C@@H]5CC[C@]43C)[C@@H]2C1	13.6	13.3	106
CC1(C)CC[C@]2(C(=O)OCc3ccccc3)CC[C@]3(C)C(=CC[C@@H]4[C@@]5(C)C/C(=C/c6cncs6)C(=O)[C@@](C)(CO)[C@@H]5CC[C@]43C)[C@@H]2C1			64.8
CC1(C)CC[C@]2(C(=O)OCc3ccccc3)CC[C@]3(C)C(=CC[C@@H]4[C@@]5(C)C/C(=C/c6ccc([N+](=O)[O-])cc6)C(=O)[C@@](C)(CO)[C@@H]5CC[C@]43C)[C@@H]2C1			119
CC1(C)CC[C@]2(C(=O)OCc3ccccc3)CC[C@]3(C)C(=CC[C@@H]4[C@@]5(C)CCC(=O)[C@@](C)(COC(=O)CCC6CCCCC6)[C@@H]5CC[C@]43C)[C@@H]2C1	2.05	0.64	110
CC1(C)CC[C@]2(C(=O)OCc3ccccc3)CC[C@]3(C)C(=CC[C@@H]4[C@@]5(C)C/C(=C/c6ccsc6)C(=O)[C@@](C)(CO)[C@@H]5CC[C@]43C)[C@@H]2C1			66.9
